Measurements: patent US11278528B2, “Activator of peroxisome proliferator-activated receptor” (Nippon Chemiphar Co., Ltd., priority 2017, dated 2022)

What was measured:
PPARα = biological target: T1, PPARα (Homo sapiens, UniProt Q07869); test: Measurement of agonist activity against PPARα (EnBio RCAS for PPARα kit, PPARA-CBP); format: biochemical; details: evaluation concentration 10 μM, ratio to maximal response well (GW7647 0.5 μM); for activation at 10 µM: read-out: Binding ratio (%) @ 10 μM
T1 construct: purchased Fujikura Kasei Co., Ltd. PPARA-CBP
T1 sequence (Q07869 1-468): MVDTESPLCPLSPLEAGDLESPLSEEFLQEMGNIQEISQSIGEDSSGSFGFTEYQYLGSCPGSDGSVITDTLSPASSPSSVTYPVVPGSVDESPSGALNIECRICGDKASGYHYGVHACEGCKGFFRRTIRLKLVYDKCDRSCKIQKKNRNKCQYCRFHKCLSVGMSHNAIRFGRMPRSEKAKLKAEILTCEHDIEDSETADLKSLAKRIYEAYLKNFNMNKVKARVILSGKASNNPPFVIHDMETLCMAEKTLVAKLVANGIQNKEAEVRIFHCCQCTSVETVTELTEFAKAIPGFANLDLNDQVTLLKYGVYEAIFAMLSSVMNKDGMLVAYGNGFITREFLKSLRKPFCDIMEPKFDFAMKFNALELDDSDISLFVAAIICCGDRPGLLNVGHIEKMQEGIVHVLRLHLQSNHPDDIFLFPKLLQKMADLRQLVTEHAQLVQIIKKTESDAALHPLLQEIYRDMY
Description: (1) Measurement of Agonist Activity against PPARα
For the measurement of agonist activity against PPARα, the absorbance was measured according to the kit protocol using EnBio RCAS for PPARα kit (PPARA-CBP, Fujikura Kasei Co., Ltd.). A sample was dissolved in dimethylsulfoxide and added to a 96-well plate so as to have an evaluation concentration of 10 μM. GW7647 was added to a maximal response well so as to have a concentration of 0.5 μM. Dimethylsulfoxide was added to background wells. After subtracting the absorbance of the background well from the absorbance of each sample addition well, the ratio of each sample addition well to the maximal response well was calculated to evaluate the agonist activity (Binding ratio, %) against PPARα. Note that the sample addition wells and the background wells were duplicated, and the maximal response well was quadruplicated. As a positive control, 10 μM of a known PPARα agonist; Fenofibric acid (Tokyo Chemical Industry Co., Ltd.) was used.

[1] = system: ZDF rats with low urinary pH; test: Low urinary pH improving effect in diabetic model Zucker Diabetic Fatty (ZDF) rats; format: in vivo, ZDF (Lepr^fa/Lepr^fa) rats; details: 24 h urine, versus Vehicle group (FIG. 2)
Description: (1) Evaluation Using Diabetic Models, Zucker Diabetic Fatty (ZDF) Rats
In this example, the low urinary pH improving effect of COMPOUND 2 was evaluated using diabetic model animals; ZDF rats with low urinary pH. Verinurad; a known URAT1 inhibitor was evaluated as a comparative control compound (the PPARα activating effect of Verinurad was evaluated by the method described in Test Example 1, and as a result, the binding ratio at an evaluation concentration of 10 μM was 3.80%, and no effect was confirmed).
ZDF (Lepr^fa/Lepr^fa) rats (male, 7 weeks old at the start of administration, Charles River Laboratories Japan, Inc.) were divided into a Vehicle group, a COMPOUND 2 (25 mg/kg) group, a COMPOUND 2 (50 mg/kg) group, and a Verinurad (50 mg/kg) group so that there was no difference in body weight between the groups (n=5 in each of the groups). As a Lean group, ZDF (Lean) rats, i.e., control animals of ZDF (Lepr^fa/Lepr^fa) rats, were used (n=5). The administration volume was 10 mL/kg, a 1% methylcellulose solution was repeatedly orally administered to the Vehicle group and the Lean group, and a COMPOUND 2 solutions and a Verinurad solution were repeatedly orally administered to the COMPOUND 2 groups and the Verinurad group, respectively, once a day for 15 days.
During the administration period, the pH of a urine sample obtained by urine collection was measured using a compact pH meter (B-712, Horiba, Ltd.). Urine collection was performed 6 days before the start of administration (pre), on the 1st day, 7th day and 14th day of administration, and urine was collected in a metabolic cage for 24 hours. The results were each expressed as a mean value±standard deviation. At each time point, significant difference was tested between the Lean group and the Vehicle group using the Student's t test (unpaired) (###: p<0.001). After one-way analysis of variance, significant difference was tested among the Vehicle group and the test substance administration groups using the Dunnett's test (*: p<0.05, **: p<0.01, and ***: p<0.001).

[2] = system: NAFLD model rats fed with a methionine/choline-deficient (MCD) diet; test: Non-alcoholic fatty liver disease (NAFLD) model rats induced by methionine/choline-deficient diet; format: in vivo, Wistar rats; details: for Plasma ALT as an indicator of liver damage: versus Vehicle group (FIG. 1A); for Liver TG level as an indicator of fatty liver: versus Vehicle group (FIG. 1B)
From the text: (1) Evaluation Using Non-Alcoholic Fatty Liver Disease (NAFLD) Model Rats Induced by Methionine/Choline-Deficient Diet
As a NAFLD model, rats fed with a methionine/choline-deficient (MCD) diet were used to perform experiments. The MCD diet-fed model is widely used as a model for NAFLD/NASH.
Wistar rats (male, 8 weeks old, Charles River Laboratories Japan, Inc.) were fed with an MCD diet (A02082002B, Research Diets, Inc.) for 5 weeks. From the time of feeding the above diet for 1 week, the rats were divided into a Vehicle group, a COMPOUND 2 (50 mg/kg) group, and a Fenofibrate (100 mg/kg) group so that there was no difference in body weight between the groups (n=4 in each of the groups). The Normal group was fed with an MCS diet as a control diet for the MCD diet (A02082003B, Research Diets, Inc.) for the same period. The administration volume was 10 mL/kg, a 1% methylcellulose solution was repeatedly orally administered to the Vehicle group and the Normal group, and a COMPOUND 2 solution and a Fenofibrate solution were repeatedly orally administered to the COMPOUND 2 group and the Fenofibrate group, respectively, once a day for 4 weeks.
The day after the end of the final administration, blood was collected from the posterior vena cava under non-fasting conditions and isoflurane inhalation anesthesia, and plasma was collected. Further, the liver was removed and a part thereof was cryopreserved. Plasma ALT was measured by the JSCC standardized method. Triglyceride (TG) in the liver was extracted from the liver with a chloroform/methanol mixed solution (2:1, v/v), evaporated to dryness, and dissolved in 2-propanol, and then the amount was measured using Triglyceride E Test Wako. The results were each expressed as a mean value±standard deviation. Significant difference was tested between the Normal group and the Vehicle group using the Welch's t test (unpaired) (#: p<0.05 and ###: p<0.001), and significant difference was tested among the Vehicle group and the test substance administration groups using the Dunnett's test (*: p<0.05, **: p<0.01, and ***: p<0.001).

[3] = 50 mg/kg oral once a day for 15 days
[4] = 50 mg/kg oral once a day for 4 weeks
[5] = 100 mg/kg oral once a day for 4 weeks

Compound | activation at 10 µM (PPARα) | also measured
CC(C)(Sc1ccc2ncsc2c1-c1ccc(C#N)cc1)C(=O)O [COMPOUND 1, 2-[[7-(4-cyanophenyl)benzo[d]thiazol-6-yl]thio]-2-methylpropanoic acid] | 49.2% | 
CC(C)(Sc1ccc2cnsc2c1-c1ccc(C#N)cc1)C(=O)O [COMPOUND 2, 2-[[7-(4-cyanophenyl)benzo[d]isothiazol-6-yl]thio]-2-methylpropanoic acid] | 69.8% | Urine pH ([1]; 25 mg/kg oral once a day for 15 days): significantly increased from the 7th day of administration; Urine pH [1, 3]: significantly increased from the 1st day of administration; Plasma ALT as an indicator of liver damage [2, 4]: significantly lower values than the Vehicle group; Liver TG level as an indicator of fatty liver [2, 4]: significantly lower
CC(C)(Oc1cc2ncsc2cc1-c1ccc(C#N)cc1)C(=O)O [COMPOUND 3, 2-[[6-(4-cyanophenyl)benzo[d]thiazol-5-yl]oxy]-2-methylpropanoic acid] | 16% | 
Cc1nsc2c(-c3ccc(C#N)cc3)c(SC(C)(C)C(=O)O)ccc12 [COMPOUND 5, 2-[[7-(4-cyanophenyl)-3-methylbenzo[d]isothiazol-6-yl]thio]-2-methyl propanoic acid] | 41.8% | 
CC(C)(Sc1ccc2nc(C(F)(F)F)sc2c1-c1ccc(C#N)cc1)C(=O)O [COMPOUND 6, 2-[[7-(4-cyanophenyl)-2-(trifluoromethyl)benzo[d]thiazol-6-yl]thio]-2-methylpropanoic acid] | 24.7% | 
N#Cc1ccc(-c2c(SC3(C(=O)O)CCC3)ccc3cnsc23)cc1 [COMPOUND 8, 1-[[7-(4-cyanophenyl)benzo[d]isothiazol-6-yl]thio]cyclobutan-1-carboxylic acid] | 29.9% | 
CC(C)(Sc1ccc2cnsc2c1-c1ccc(C(F)(F)F)cc1)C(=O)O [COMPOUND 9, 2-methyl-2-[[7-[4-(tri-fluoromethyl)phenyl]benzo[d]iso-thiazol-6-yl]thio]propanoic acid] | 87% | 
N#Cc1ccc(-c2c(SC3(C(=O)O)CCCC3)ccc3cnsc23)cc1 [COMPOUND 11, 1-[[7-(4-cyanophenyl)benzo[d]isothiazol-6-yl]thio]cyclopentan-1-carboxylic acid] | 21.7% | 
CC(C)(Sc1ccc2cnsc2c1-c1ccc(Cl)cc1)C(=O)O [COMPOUND 12, 2-[[7-(4-chlorophenyl)benzo[d]isothiazol-6-yl]thio]-2-methylpropanoic acid] | 92.6% | 
Cc1cc(-c2c(SC(C)(C)C(=O)O)ccc3cnsc23)ccc1C#N [COMPOUND 13, 2-[[7-(4-cyano-3-methylphenyl)benzo[d]isothiazol-6-yl]thio]-2-methylpropanoic acid] | 20.8% | 
Cc1nsc2c(-c3ccc(C#N)cc3)c(SC3(C(=O)O)CCC3)ccc12 [COMPOUND 14, 1-[[7-(4-cyanophenyl)-3-methylbenzo[d]isothiazol-6-yl]thio]cyclobutan-1-carboxylic acid] | 26.5% | 
CC(C)(C)C(Sc1ccc2cnsc2c1-c1ccc(C#N)cc1)C(=O)O (stereo not shown) [COMPOUND 16, 2-[[7-(4-cyanophenyl)benzo[d]isothiazol-6-yl]thio]-3,3-dimethylbutanoic acid] | 11.8% | 
CC(C)(Oc1ccc(C(=O)c2ccc(Cl)cc2)cc1)C(=O)O [Fenofibric acid, 2-[4-(4-chlorobenzoyl)phenoxy]-2-methylpropionic acid, reference compound] |  | Binding ratio (%) @ 10 μM (PPARα): 50.46%
fenofibrate [reference compound] |  | Plasma ALT as an indicator of liver damage [2, 5]: significantly lower values than the Vehicle group; Liver TG level as an indicator of fatty liver [2, 5]: significantly lower

Second part, led by results:

activation at 10 µM (PPARα) | Compound | also measured
52.6% | CC(C)(Sc1ccc2ccccc2c1-c1ccc(C#N)cc1)C(=O)O [COMPOUND 4, 2-[[1-(4-cyanophenyl)naphthalen-2-yl]thio]-2-methylpropanoic acid] | 
47% | Cc1nc2ccc(SC(C)(C)C(=O)O)c(-c3ccc(C#N)cc3)c2s1 [COMPOUND 7, 2-[[7-(4-cyanophenyl)-2-methylbenzo[d]thiazol-6-yl]thio]-2-methylpropanoic acid] | 
71.3% | CC(C)(Sc1cc(F)c2cnsc2c1-c1ccc(C#N)cc1)C(=O)O [COMPOUND 10, 2-[[7-(4-cyanophenyl)-4-fluorobenzo[d]isothiazol-6-yl]thio]-2-methylpropanoic acid] | 
59% | CCC(CC)(Sc1ccc2cnsc2c1-c1ccc(C#N)cc1)C(=O)O [COMPOUND 15, 2-[[7-(4-cyanophenyl)benzo[d]isothiazol-6-yl]thio]-2-ethylbutanoic acid] | 
3.8% | CC(C)(Sc1ccncc1-c1ccc(C#N)c2ccccc12)C(=O)O [Verinurad, reference compound] | Urine pH [1, 3]: no low urinary pH improving effect was observed throughout the administration period
